Laboratory results published in US20250268826A1, “IONIZABLE LIPIDOID COMPOSITIONS AND THERAPEUTIC USES THEREOF” (Flagship Pioneering Innovations VII, LLC, priority 2023, published 2025).
Several values for one entry are separate records, joined by “and”; a condition that tells them apart may be missing. Equal entries are not always repeated. Where two headings read alike, the source gives them in different places.

Experiments:
Assay type in all cases: physicochemical
[1] = LNP size and polydispersity index (PDI) by dynamic light scattering (DLS)
[2] = Encapsulation efficiency (EE %) by fluorescence based Ribogreen assay
[3] = LNP Zeta potential measured using a Zetasizer (Malvern); settings: for Zeta potential (mV): LNP with hEPO mRNA, N:P ratio 6
[4] = Table 1, LNP lipid:DSPC:Cholesterol:DMG-PEG2k 50:10:38.5:1.5 mol %, hEPO mRNA, N:P 6
[5] = Table 3, LNP 50:10:38.5:1.5 mol %, hEPO mRNA, N:P 6
[6] = Table 3, LNP lipid:DSPC:Cholesterol:DMG-PEG2k 50:10:38.5:1.5 mol %, hEPO mRNA, N:P 6
[7] = Table 6, LNP 50:10:38.5:1.5 mol %, hEPO mRNA, N:P 6
[8] = Table 6, LNP 60:0:38.5:1.5 mol %, hEPO mRNA, N:P 6
[9] = Table 11, LNP with hEPO mRNA, Lipid:DSPC:Cholesterol:DMG-PEG2k 50:10:38.5:1.5 mol % (ALC-0315: 46.3:9.4:42.7:1.6), N:P ratio 6, HEPES/sodium chloride/sucrose buffer, stored at −80C
[10] = Table 8, LNP 50:10:38.5:1.5 mol %, hEPO mRNA, N:P 6
[11] = Table 8, LNP Lipid:DSPC:Cholesterol:DMG-PEG2k 50:10:38.5:1.5 mol %, hEPO mRNA, N:P 6
[12] = Table 10, LNP with hEPO mRNA, Lipid:DSPC:Cholesterol:DMG-PEG2k 50:10:38.5:1.5 mol %, N:P ratio 6, DLS
[13] = Table 10, LNP with hEPO mRNA, Lipid:DSPC:Cholesterol:DMG-PEG2k 50:10:38.5:1.5 mol %, N:P ratio 6, Ribogreen assay
[14] = Table 10, Lipid:DSPC:Cholesterol:DMG-PEG2k 50:10:38.5:1.5 mol %
[15] = Table 2, LNP 20:10:68.5:1.5 mol %, EGFP mRNA, N:P 2.4
[16] = Table 2, LNP 20:40:38.5:1.5 mol %, EGFP mRNA, N:P 2.4
[17] = Table 2, LNP 30:10:58.5:1.5 mol %, EGFP mRNA, N:P 3.6
[18] = Table 2, LNP 30:30:38.5:1.5 mol %, EGFP mRNA, N:P 3.6
[19] = Table 2, LNP 40:10:48.5:1.5 mol %, EGFP mRNA, N:P 4.8
[20] = Table 2, LNP 40:20:38.5:1.5 mol %, EGFP mRNA, N:P 4.8
[21] = Table 2, LNP 50:10:38.5:1.5 mol %, EGFP mRNA, N:P 6
[22] = Table 5, LNP 50:10:38.5:1.5 mol %, hEPO mRNA, N:P 6
[23] = Table 5, LNP Lipid:DSPC:Cholesterol:DMG-PEG2k 50:10:38.5:1.5 mol %, hEPO mRNA, N:P 6
[24] = Table 5, LNP 60:0:38.5:1.5 mol %, hEPO mRNA, N:P 6

Structure (SMILES): CCCCCCCC/C=C\CCCCCCCC(=O)OCCN(CCOC(=O)CCCCCCC/C=C\CCCCCCCC)C(=O)C(N)Cc1ccccc1 (stereo not shown) [Compound 113]
- PDI [1, 4]: 0.126
- Size [1, 4]: 79.1 nm
- PDI [1, 5]: 0.068
- Size [1, 6]: 61.4 nm
- Encapsulation Efficiency % [2, 4]: 95.2%
- Encapsulation Efficiency % [2, 5]: 99.7%
- Zeta potential [3, 4]: −2.878 mV

Structure (SMILES): CCCCCCCC/C=C\CCCCCCCC(=O)OCCN(CCOC(=O)CCCCCCC/C=C\CCCCCCCC)C(=O)[C@H](C)N.Cl [Compound 201]
- PDI [1, 5]: 0.032
- Size [1, 6]: 63.1 nm
- Encapsulation Efficiency % [2, 5]: 99.9%

Structure (SMILES): CCCCCCCCC(CCCCCC)C(=O)OCCN(CCOC(=O)C(CCCCCC)CCCCCCCC)C(=O)CC(C)N (stereo not shown) [Compound 802]
- PDI [1, 7]: 0.224
- PDI [1, 8]: 0.195
- Size [1, 8]: 87.6 nm
- Size ([1]; Table 6, LNP lipid:DSPC:Cholesterol:DMG-PEG2k 50:10:38.5:1.5 mol %, hEPO mRNA, N:P 6): 104.5 nm
- Encapsulation Efficiency % [2, 7]: 98.4%
- Encapsulation Efficiency % [2, 8]: 98.4%
- Zeta potential [3, 7]: −1.8 mV
- Zeta potential [3, 8]: 0.1 mV

Structure (SMILES): CCCCCCCCC(CCCCCC)C(=O)OCCN(CCOC(=O)C(CCCCCC)CCCCCCCC)C(=O)C(C)CCNCC.Cl (stereo not shown) [Compound 987e]
- PDI [1, 9]: 0.110
- Size (nm) [1, 9]: 70.5 nm
- Encapsulation Efficiency % [2, 9]: 99.4%
- Zeta potential (mV) ([3]; Table 11, Lipid:DSPC:Cholesterol:DMG-PEG2k 50:10:38.5:1.5 mol % (ALC-0315: 46.3:9.4:42.7:1.6), HEPES/sodium chloride/sucrose buffer, stored at −80C): 0.8 mV

Structure (SMILES): CCCCCCCCC(CCCCCC)C(=O)OCCN(CCOC(=O)C(CCCCCC)CCCCCCCC)C(=O)C(C)CNCC.Cl (stereo not shown) [Compound 925]
- PDI [1, 10]: 0.146
- Size [1, 11]: 79.6 nm
- Encapsulation Efficiency % [2, 10]: 99.9%
- Zeta potential [3, 10]: −6.1 mV

Structure (SMILES): CCCCCCCC/C=C\CCCCCCCC(=O)OCCN(CCOC(=O)CCCCCCC/C=C\CCCCCCCC)C(=O)C(C)N (stereo not shown) [Compound 107]
- Size [1, 4]: 100.4 nm
- PDI [1, 5]: 0.016
- Size [1, 6]: 60.6 nm
- Encapsulation Efficiency % [2, 4]: 93%
- Encapsulation Efficiency % [2, 5]: 99.9%
- Zeta potential [3, 4]: 5.484 mV

Structure (SMILES): CCCCCCCCCC(CCCCCCCCC)C(=O)OCCN(CCOC(=O)C(CCCCCCCCC)CCCCCCCCC)C(=O)CCN(CC)CC [Compound 917f]
- PDI [1, 12]: 0.314
- Size (nm) [1, 12]: 51.5 nm
- Encapsulation Efficiency % [2, 13]: 91.9%
- Zeta potential (mV) [3, 14]: −11.1 mV

Structure (SMILES): CCCCCCCCC(CCCCCC)C(=O)OCCN(CCOC(=O)C(CCCCCC)CCCCCCCC)C(=O)CN(C)C (stereo not shown) [Compound 961]
- Encapsulation Efficiency % [2]: 99.8%

Structure (SMILES): CCCCCCCCCC(CCCCCCCCC)C(=O)OCCN(CCOC(=O)C(CCCCCCCCC)CCCCCCCCC)C(=O)CCN(C)CCC [Compound 917g]
- PDI [1, 12]: 0.281
- Size (nm) [1, 12]: 49.2 nm
- Encapsulation Efficiency % [2, 13]: 93.5%
- Zeta potential (mV) [3, 14]: −10.2 mV

Structure (SMILES): CCCCCCCCC(CCCCCC)C(=O)OCCN(CCOC(=O)C(CCCCCC)CCCCCCCC)C(=O)C(C)N (stereo not shown) [Compound 111]
- PDI [1, 4]: 0.223
- Size [1, 4]: 93.4 nm
- PDI [1, 15]: 0.129
- PDI [1, 16]: 0.095
- PDI [1, 17]: 0.082
- PDI [1, 18]: 0.117
- PDI [1, 19]: 0.038
- PDI [1, 20]: 0.136
- PDI [1, 21]: 0.235 and 0.253
- Size ([1]; Table 2, LNP lipid:DSPC:Cholesterol:DMG-PEG2k 20:10:68.5:1.5 mol %, EGFP mRNA, N:P 2.4): 57.5 nm
- Size ([1]; Table 2, LNP lipid:DSPC:Cholesterol:DMG-PEG2k 20:40:38.5:1.5 mol %, EGFP mRNA, N:P 2.4): 69.2 nm
- Size ([1]; Table 2, LNP lipid:DSPC:Cholesterol:DMG-PEG2k 30:10:58.5:1.5 mol %, EGFP mRNA, N:P 3.6): 46.5 nm
- Size ([1]; Table 2, LNP lipid:DSPC:Cholesterol:DMG-PEG2k 30:30:38.5:1.5 mol %, EGFP mRNA, N:P 3.6): 57 nm
- Size ([1]; Table 2, LNP lipid:DSPC:Cholesterol:DMG-PEG2k 40:10:48.5:1.5 mol %, EGFP mRNA, N:P 4.8): 44.1 nm
- Size ([1]; Table 2, LNP lipid:DSPC:Cholesterol:DMG-PEG2k 40:20:38.5:1.5 mol %, EGFP mRNA, N:P 4.8): 48.2 nm
- Size ([1]; Table 2, LNP lipid:DSPC:Cholesterol:DMG-PEG2k 50:10:38.5:1.5 mol %, EGFP mRNA, N:P 6): 110.9 nm and 106 nm
- PDI [1, 5]: 0.27
- Size [1, 6]: 100.9 nm
- Encapsulation Efficiency % [2, 4]: 95.9%
- Encapsulation Efficiency % [2, 15]: 99.7%
- Encapsulation Efficiency % [2, 16]: 99.3%
- Encapsulation Efficiency % [2, 17]: 99.8%
- Encapsulation Efficiency % [2, 18]: 99.2%
- Encapsulation Efficiency % [2, 19]: 99.7%
- Encapsulation Efficiency % [2, 20]: 99.6%
- Encapsulation Efficiency % [2, 21]: 99.4% and 99.8%
- Encapsulation Efficiency % [2, 5]: 98.1%
- Zeta potential [3, 4]: −3.357 mV
- Zeta potential [3, 15]: −6.2 mV
- Zeta potential [3, 16]: −8.876 mV
- Zeta potential [3, 17]: −4.4 mV
- Zeta potential [3, 18]: −9.169 mV
- Zeta potential [3, 19]: −6.9 mV
- Zeta potential [3, 20]: −8.503 mV

Structure (SMILES): CCCCCCCCC(CCCCCC)C(=O)OCCN(CCOC(=O)C(CCCCCC)CCCCCCCC)C(=O)C(N)CCCCN (stereo not shown) [Compound 123]
- PDI [1, 4]: 0.338
- Size [1, 4]: 83.3 nm
- Encapsulation Efficiency % [2, 4]: 97%
- Zeta potential [3, 4]: −3.45 mV

Structure (SMILES): CCCCCC(CCCCC)C(=O)OCCN(CCOC(=O)C(CCCCC)CCCCC)C(=O)C(C)N (stereo not shown) [Compound 608]
- PDI [1, 22]: 0.13
- Size [1, 23]: 77.1 nm
- Encapsulation Efficiency % [2, 22]: 97.7%
- Zeta potential [3, 22]: −4.462 mV

Structure (SMILES): CCCCCCCCC(CCCCCC)C(=O)OCCN(CCOC(=O)C(CCCCCC)CCCCCCCC)C(=O)CN (stereo not shown) [Compound 105]
- PDI [1, 4]: 0.217
- Size [1, 4]: 72.6 nm
- PDI [1, 5]: 0.256
- Size [1, 6]: 162.2 nm
- PDI [1, 22]: 0.104
- PDI [1, 24]: 0.198
- Size [1, 24]: 146.3 nm
- Size [1, 23]: 166.9 nm
- Encapsulation Efficiency % [2, 4]: 91.3%
- Encapsulation Efficiency % [2, 5]: 99.9%
- Encapsulation Efficiency % [2, 22]: 99.6%
- Encapsulation Efficiency % [2, 24]: 99.3%
- Zeta potential [3, 4]: −4.852 mV
- Zeta potential [3, 22]: −5.091 mV
- Zeta potential [3, 24]: −8.315 mV

Structure (SMILES): CCCCCCC(CCCC)C(=O)OCCN(CCOC(=O)C(CCCC)CCCCCC)C(=O)C(C)N (stereo not shown) [Compound 609]
- Size [1, 23]: 98 nm
- Encapsulation Efficiency % [2, 22]: 99.8%
- Zeta potential [3, 22]: −4.452 mV

Structure (SMILES): CCCCCCCC/C=C\CCCCCCCC(=O)OCCN(CCOC(=O)CCCCCCC/C=C\CCCCCCCC)C(=O)C(N)Cc1c[nH]cn1 (stereo not shown) [Compound 125]
- PDI [1, 4]: 0.46
- Size [1, 4]: 109.4 nm
- Encapsulation Efficiency % [2, 4]: 99.4%

Structure (SMILES): CCCCCCCCC(CCCCCC)C(=O)OCCN(CCOC(=O)C(CCCCCC)CCCCCCCC)C(=O)C(N)Cc1c[nH]cn1 (stereo not shown) [Compound 129]
- Size [1, 4]: 93.8 nm
- Encapsulation Efficiency % [2, 4]: 99.7%

Structure (SMILES): CCCCCCCCC(CCCCCC)C(=O)OCCN(CCOC(=O)C(CCCCCC)CCCCCCCC)C(=O)CC(C)NCCC.Cl (stereo not shown) [Compound 948]
- PDI [1, 10]: 0.188
- Size [1, 11]: 74.1 nm
- Encapsulation Efficiency % [2, 10]: 99.7%

Structure (SMILES): CCCCCCCC/C=C\CCCCCCCC(=O)OCCN(CCOC(=O)CCCCCCC/C=C\CCCCCCCC)C(=O)[C@@H](N)Cc1ccccc1.Cl [Compound 202]
- PDI [1, 5]: 0.033
- Size [1, 6]: 60.7 nm
- Encapsulation Efficiency % [2, 5]: 99.7%
